Results from EP0197800A2, “5-Thiaprostaglandins E1 and process for producing same” (TEIJIN LIMITED, priority 1985, dated 1986).
In brackets after ≈: the same amount, converted by molar mass.

Key:
indomethacin ulcer = assay: inhibitory activity on indomethacin ulcer; format: in vivo, Wister male rats; settings: rat indomethacin ulcer, oral administration of 40 µg/kg
Protocol: The inhibiting effect on ulcer formation induced by indomethacin was examined by using Wister male rats (7 weeks old, body weight 220 g) which were fasted for 24 hours, except for water, and then subjected to experiment.
The sample compound to be tested was dissolved in a phosphoric acid buffer (pH 7.4) containing 0.9% NaCl and the solution was orally administered to the rats. 30 minutes after the administration, indomethacin was orally administered to the rats at a dose of 20 mg/kg. 5 hours after the administratin of the indomethacin, the rats were killed and the ulcer formation in the stomach was examined by determining the length of the ulcer formation portion under a stereomicroscope. From this measurement, the inhibition of ulcer formation by the sampel compound was calculated to determine the IC50 values.

platelet aggregation [1] = assay: extra vivo inhibitory activity of platelet aggregation after oral administration; format: in vivo, Hartley-strain guinea pigs; settings: guinea pigs, oral 0.3-3 mg/kg, blood drawn 1 hour after administration, N.E.: no-effect
Protocol: The extra vivo platelet aggregation inhibitory activity of the 5-thiaprostaglandin E1 derivatives of the invention were measured by using guinea pigs. A test drug prepared as a 10% ethanol solution of the compound of the invention in ethanol diluted with 10% ethanol-0.5% Tween 80 in saline were orally administered in a dose of 0.3-3 mg/kg, and as a control 10% ethanol-0.5% Tween 80 in saline was orally administered in a dose of 1 ml/kg to Hartley-strain guinea pigs having a body weight of 350 to 450 g which had been fasted for 17 hours. 1 hour after the administration of the compound, blood was drawn off by carbiac puncture using trisodium citrate so that the ratio of the blood to 3.8% trisodium citrate was 9:1. The blood was centrifuged at a speed of 700 rpm for 10 minutes. The upper layer was separated as platelet-rich plasma (PRP). The lower layer was further centrifuged at a speed of 2800 rpm for 10 minutes. The upper layer was separated as platelet poor plasma (PPP). A 250 microliter amount of the - resulting PRP was taken into an aggregometer cuvette and incubated at 37°C for 2 minutes. […] The aggregation curve was recorded for 5 minutes. The maximum degree of aggregation of platelets within this time period was read, and the rate of inhibition of platelet aggregation was calculated from the following equation. […]

blood pressure = assay: activity on blood pressure, intravenous injection under anesthesia; format: in vivo, male wister rats; settings: Rattus norvegicus, i.v., dosage which caused a 20% lowering of the mean blood pressure, anesthetized rats
Protocol: The actions of the 5-thiaprostaglandin of the invention on the blood pressure was examined by intravenous injection under anesthesia.
Urehtane (500 mg/kg) and a-chloralose (100 mg/kg) were intraperitoneally administered to male wister rats weighing about 250 g. The rats were anesthetized and fixed in place.
The test compound was dissolved in a small amount of ethanol and diluted with physiological saline to adjust the final ethanol concentration to not more than 5%. The solution was intravenously injected into the rats through a catheter inserted into the femoral vein.
The blood pressure of the rats was measured by a pressure transducer through a catheter inserted into the carotid artery of the rats.
The action of the test compound on the blood pressure was expressed as the dosage (ED20 , ug/kg) of the test compound which caused a 20% lowering of the mean blood pressure before administration of the compound.

ethanol ulcer = assay: inhibitory activity on ethanol ulcer; format: in vivo, SD-strain rats; settings: rat ethanol ulcer, oral administration of 4 ug/kg
Protocol: An ethanol ulcer test was carried out by the following procedure. SD-strain rats (body weight 200 to 220 g; 7 week old) were fasted for 24 hours, and a solution of the test compound in physiological saline buffered with phosphate buffer at pH 7.5 was orally administered. Thirty minutes after the administration, 75% ethanol was orally administered in a dose of 1 ml/kg. One hour later, the abdomen was incised to isolate the stomach. […] The total of these lengths was […] ulcer index. From this measurement, the inhibition of ulcer formatin by the test compound was calculated, to determine the IC50 value.

platelet aggregation [2] = assay: in vitro inhibitory activity of platelet aggregation (ADP-induced, platelet-rich plasma); format: cell-based, Japanese domestic white male rabbits; settings: Oryctolagus cuniculus; rabbit PRP, 10 µM ADP; minimum concentration which inhibited more than 50% of platelet aggregation; read-out: Inhibition of Platelet in vitro IC50
Protocol: The in vitro platelet aggregation imhibiting activity of the compound of the invention was examined by using rabbits. Blood was withdrawn from the ear vein of Japanese domestic white male rabbits weighing 2.5 to 3.5 kg. A mixture of a 3.8% trisodium citrate solution and the blood in a ratio of 1:9 was centrifuged at a speed of 1000 rpm for 10 minutes. The upper layer was separated as platelet-rich plasma (PRP). The lower layer was further centrifuged at a speed of 2800 rpm for 10 minutes. The upper layer was separated as platelet- poor plasma (PPP). The number of plate lets was adjusted to 6 x 105/µℓ. to 7 x 105/µℓ. by diluting the PRP with PPP. 25 microliters of the test compound prepared as shown below was added with an amount of 25 to 250 microliters of PRP after the adjustment, and the mixture was pre-incubated at 37°C for 2 minutes, and then 10 µM (final) of ADP was added. Changes in transmission were recorded by using an aggregometer.
The drug was dissolved in ethanol to a concentration of 10 mg/ml, and seccussively diluted with phosphate buffer (pH 7.4) prior to use.
The rate of inhibition of platelet aggregation was determined from the following equation. [formula] • T0: the transmittance of the system containing the phosphate buffer, • T : the transmittance of the system to which the test drug was added. […]

CCCC[C@](C)(O)C/C=C/[C@H]1[C@H](O)CC(=O)[C@@H]1CCSCCCC(=O)OC [Compound of example 6, (16S)-15-deoxy-16-hydroxy-16-methyl-5-thiaprostaglandin E1 methyl ester]
preventive rate of ulcer generation (indomethacin ulcer): about 50%
Inhibition of Platelet extra vivo ADP (platelet aggregation [1]; ADP-induced aggregation): N.E.
Inhibition of Platelet extra vivo collagen (platelet aggregation [1]; collagen-induced aggregation): N.E.
ED20 (blood pressure): 2.1 µg/kg
prevention rate of ulcer generation (ethanol ulcer): about 50%
IC50 (platelet aggregation [2]): 60 µg/mL (≈ 150 µM)
